For 6 cell lines, relative viability results are on record in the supplement of paper PMC10307832.

Experiment in all cases: relative viability (nuclei count vs DMSO), 5 days (fraction); higher = more cells survive
Compound in one assay: CS(=O)(=O)c1ccc(-c2cnc(N)c(C(=O)Nc3ccccc3)n2)cc1 [VE-821]
A digest of the protocol:
(§1)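 Nuclei counted with MetaXpress define viability as the ratio of treated to vehicle wells, given as a median across plates. The lung cancer cell lines were in 1536-well plates, pinned with five √10-spaced library-drug doses and imaged at 4× after 5 days and Hoechst staining. Plates passed with control CV below 25% and at least one doubling.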

Compound in the next assay: CS(=O)(=O)c1ccc(C(=O)Nc2ccc(Cl)c(-c3ccccn3)c2)c(Cl)c1 [Vismodegib]
A digest of the protocol: as §1

Compound in a further assay: N#CC[C@H](C1CCCC1)n1cc(-c2ncnc3[nH]ccc23)cn1 [Ruxolitinib]
A digest of the protocol: as §1

Compound in the assay “Vismodegib + Dasatinib”: CS(=O)(=O)c1ccc(C(=O)Nc2ccc(Cl)c(-c3ccccn3)c2)c(Cl)c1 [Vismodegib] + Cc1nc(Nc2ncc(C(=O)Nc3c(C)cccc3Cl)s2)cc(N2CCN(CCO)CC2)n1 [Dasatinib] (partner 0.075 µM)
A digest of the protocol:
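Relative viability divides the nuclei count in treated wells by that in vehicle wells. Lung cancer cell lines were seeded in 1536-well plates, dosed by pin tool the next day, and fixed and stained after 5 days in one step with final 0.05% Triton X-100, 1% formaldehyde and 1 ug/ml Hoechst. Dosing was a single drug or a fixed anchor-drug dose plus five library-drug doses (not always all listed) in √10 steps, and values are medians of duplicate plates imaged at 4×.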

Regarding NCI-H358, the relative viability was determined as 1.05 with VE-821 (0.08 µM); 0.964 in the assay with VE-821 (0.253 µM); 0.936 in the assay with VE-821 (0.8 µM); 1.08 in the assay with VE-821 (2.53 µM); 0.803 with VE-821 (8 µM); 0.945 with Vismodegib (0.08 µM). For the same cell line, the relative viability stood at 0.989 with Vismodegib (0.253 µM); 0.973 with Vismodegib (0.8 µM); 0.911 with Vismodegib (2.53 µM); 0.921 with Vismodegib (8 µM); 0.848 with Ruxolitinib (0.08 µM); 0.921 with Ruxolitinib (0.253 µM). The relative viability in the assay with Ruxolitinib (0.8 µM) worked out at 0.889; with Ruxolitinib (2.53 µM), 0.537; with Ruxolitinib (8 µM), 0.63; in the assay with Vismodegib + Dasatinib (first compound 0.08 µM) it was 0.149; with Vismodegib + Dasatinib (first compound 0.253 µM) it was 0.183; with Vismodegib + Dasatinib (first compound 0.8 µM), 0.193. For the same cell line, the relative viability was 0.172 with Vismodegib + Dasatinib (first compound 2.53 µM) and 0.161 with Vismodegib + Dasatinib (first compound 8 µM).

Consider NCI-H441, for which the relative viability in the assay with VE-821 (0.08 µM) was 1.16; with VE-821 (0.253 µM), 1.1; with VE-821 (0.8 µM) it was 1.34; with VE-821 (2.53 µM) it was 1.34; with VE-821 (8 µM), 0.793; with Vismodegib (0.08 µM), 1.02. Moreover, the relative viability stood at 0.909 in the assay with Vismodegib (0.253 µM); 1.01 with Vismodegib (0.8 µM); 0.98 in the assay with Vismodegib (2.53 µM); 1.04 with Vismodegib (8 µM); 0.946 in the assay with Ruxolitinib (0.08 µM); 0.933 with Ruxolitinib (0.253 µM). The relative viability was found to be 1.16 with Ruxolitinib (0.8 µM); 0.962 with Ruxolitinib (2.53 µM); 0.699 with Ruxolitinib (8 µM); 0.671 with Vismodegib + Dasatinib (first compound 0.08 µM); 0.444 in the assay with Vismodegib + Dasatinib (first compound 0.253 µM); 0.502 in the assay with Vismodegib + Dasatinib (first compound 0.8 µM). For the same cell line, the relative viability is 0.558 with Vismodegib + Dasatinib (first compound 2.53 µM) and 0.433 in the assay with Vismodegib + Dasatinib (first compound 8 µM).

Turning to NCI-H460, the relative viability in the assay with VE-821 (0.08 µM) stood at 1.05; with VE-821 (0.253 µM), 0.983; with VE-821 (0.8 µM), 0.947; with VE-821 (2.53 µM), 0.82; with VE-821 (8 µM), 0.56; with Vismodegib (0.08 µM), 1.01. For the same cell line, the relative viability came to 0.979 with Vismodegib (0.253 µM); 1 in the assay with Vismodegib (0.8 µM); 0.981 in the assay with Vismodegib (2.53 µM); 1.03 with Vismodegib (8 µM); 1.03 with Ruxolitinib (0.08 µM); 1.06 with Ruxolitinib (0.253 µM). Moreover, the relative viability in the assay with Ruxolitinib (0.8 µM) amounted to 1.07; with Ruxolitinib (2.53 µM), 1; with Ruxolitinib (8 µM) it was 0.96; in the assay with Vismodegib + Dasatinib (first compound 0.08 µM) it was 0.575; with Vismodegib + Dasatinib (first compound 0.253 µM) it was 0.507; with Vismodegib + Dasatinib (first compound 0.8 µM), 0.533. For the same cell line, the values for the relative viability in the assay with Vismodegib + Dasatinib (first compound 2.53 µM) and in the assay with Vismodegib + Dasatinib (first compound 8 µM) were 0.482 and 0.533, respectively.

As for NCI-H520, the relative viability stood at 1.05 in the assay with VE-821 (0.08 µM); 0.992 with VE-821 (0.253 µM); 0.723 with VE-821 (0.8 µM); 1.06 in the assay with VE-821 (2.53 µM); 0.67 with VE-821 (8 µM); 0.922 with Vismodegib (0.08 µM). Further, the relative viability in the assay with Vismodegib (0.253 µM) amounted to 0.885; in the assay with Vismodegib (0.8 µM), 0.927; with Vismodegib (2.53 µM), 0.875; with Vismodegib (8 µM) it was 1.11; in the assay with Ruxolitinib (0.08 µM) it was 1.07; with Ruxolitinib (0.253 µM), 0.749. For the same cell line, the relative viability with Ruxolitinib (0.8 µM) turned out to be 1.2; with Ruxolitinib (2.53 µM) it was 0.934; with Ruxolitinib (8 µM), 0.951; with Vismodegib + Dasatinib (first compound 0.08 µM), 0.191; with Vismodegib + Dasatinib (first compound 0.253 µM), 0.202; with Vismodegib + Dasatinib (first compound 0.8 µM) it was 0.188. For the same cell line, the relative viability with Vismodegib + Dasatinib (first compound 2.53 µM) turned out to be 0.166; in the assay with Vismodegib + Dasatinib (first compound 8 µM), 0.203.

In the case of NCI-H522, the relative viability with VE-821 (0.08 µM) was determined as 0.974; with VE-821 (0.253 µM), 0.938; with VE-821 (0.8 µM), 0.934; with VE-821 (2.53 µM), 1.06; with VE-821 (8 µM), 0.849; with Vismodegib (0.08 µM) it was 0.973. The relative viability stood at 0.876 with Vismodegib (0.253 µM); 0.957 in the assay with Vismodegib (0.8 µM); 1 in the assay with Vismodegib (2.53 µM); 1.01 with Vismodegib (8 µM); 1.01 with Ruxolitinib (0.08 µM); 0.95 in the assay with Ruxolitinib (0.253 µM). Also, the relative viability with Ruxolitinib (0.8 µM) is 1.01; with Ruxolitinib (2.53 µM), 0.895; with Ruxolitinib (8 µM) it was 0.874; with Vismodegib + Dasatinib (first compound 0.08 µM), 0.915; in the assay with Vismodegib + Dasatinib (first compound 0.253 µM) it was 0.888; with Vismodegib + Dasatinib (first compound 0.8 µM), 0.883. Also, the relative viability came out at 0.793 with Vismodegib + Dasatinib (first compound 2.53 µM) and 0.879 in the assay with Vismodegib + Dasatinib (first compound 8 µM).

Regarding NCI-H596, the relative viability in the assay with VE-821 (0.08 µM) turned out to be 0.984; with VE-821 (0.253 µM), 0.907; with VE-821 (0.8 µM), 0.972; with VE-821 (2.53 µM), 0.975; with VE-821 (8 µM) it was 1; in the assay with Vismodegib (0.08 µM) it was 0.986. The relative viability with Vismodegib (0.253 µM) was found to be 1.02; with Vismodegib (0.8 µM) it was 0.898; with Vismodegib (2.53 µM), 0.932; with Vismodegib (8 µM) it was 0.952; with Ruxolitinib (0.08 µM) it was 1.09; with Ruxolitinib (0.253 µM) it was 0.98. The relative viability with Ruxolitinib (0.8 µM) was 1.12; with Ruxolitinib (2.53 µM) it was 1.09; with Ruxolitinib (8 µM), 1.07; with Vismodegib + Dasatinib (first compound 0.08 µM), 0.568; with Vismodegib + Dasatinib (first compound 0.253 µM) it was 0.566; with Vismodegib + Dasatinib (first compound 0.8 µM) it was 0.585. Further, the relative viability with Vismodegib + Dasatinib (first compound 2.53 µM) was determined as 0.625; with Vismodegib + Dasatinib (first compound 8 µM), 0.556.
